Results taken from doi:10.64898/2025.12.10.692519v1 (biorxiv, 2025).

What was measured:
[1] = molecular target: ALDH2 (Homo sapiens, UniProt P05091); test: NADH fluorescence dehydrogenase assay; format: biochemical
[2] = system: 786-O; test: cells; details: Homo sapiens, 786-0, 144 h, read-out: AB8939
[3] = system: A-549; test: cells; details: Homo sapiens, A549, 144 h, read-out: AB8939
[4] = system: A4573; test: cells; details: A4573, 144 h, read-out: AB8939
[5] = system: ACHN; test: cells; details: Homo sapiens, ACHN, 144 h, read-out: AB8939
[6] = system: CCRF-CEM; test: cells; details: Homo sapiens, CCRF-CEM, 144 h, read-out: AB8939
[7] = system: DU-145; test: cells; details: Homo sapiens, DU-145, 144 h, read-out: AB8939
[8] = system: HEP-2; test: cells; details: Homo sapiens, HEp-2, 144 h, read-out: AB8939
[9] = system: HGC-27; test: cells; details: Homo sapiens, HGC-27, 144 h, read-out: AB8939
[10] = system: HL-60; test: cells; details: Homo sapiens, HL-60, 144 h, read-out: AB8939
[11] = system: HRT-18; test: cells; details: Homo sapiens, HRT-18, 144 h, read-out: AB8939
[12] = system: HUT-78; test: cells; details: Homo sapiens, HuT78, 144 h, read-out: AB8939
[13] = system: Karpas-299; test: cells; details: Homo sapiens, KARPAS-299, 144 h, read-out: AB8939
[14] = system: LnCaP; test: cells; details: Homo sapiens, LNCaP, 144 h, read-out: AB8939
[15] = system: MCF-7; test: cells; details: Homo sapiens, MCF7, 144 h, read-out: AB8939
[16] = system: MDA-MB-468; test: cells; details: Homo sapiens, MDA-MB-468, 144 h, read-out: AB8939
[17] = system: MESSA; test: cells; details: Homo sapiens, MES-SA, 144 h, read-out: AB8939
[18] = system: MOLM-14; test: cells; details: Homo sapiens, MOLM-14, 144 h, read-out: AB8939
[19] = system: NALM-6; test: cells; details: Homo sapiens, NALM-6, 144 h, read-out: AB8939
[20] = system: NOMO-1; test: cells; details: Homo sapiens, NOMO-1, 144 h, read-out: AB8939
[21] = system: PANC-1; test: cells; details: Homo sapiens, PANC-1, 144 h, read-out: AB8939
[22] = system: PLC-PRF5; test: cells; details: Homo sapiens, PLC-PRF-5, 144 h, read-out: AB8939
[23] = system: REC-1; test: cells; details: Homo sapiens, Rec1, 144 h, read-out: AB8939
[24] = system: SK-N-MC; test: cells; details: Homo sapiens, SK-N-MC, 144 h, read-out: AB8939
[25] = system: SW-872; test: cells; details: Homo sapiens, SW872, 144 h, read-out: AB8939
[26] = system: THP-1; test: cells; details: Homo sapiens, THP-1, 144 h, read-out: AB8939
[27] = system: Tov21G; test: cells; details: Homo sapiens, TOV21G, 144 h, read-out: AB8939
[28] = system: U-118; test: cells; details: 144 h, read-out: AB8939
[29] = system: U2OS; test: cells; details: Homo sapiens, U2OS, 144 h, read-out: AB8939

Chain of ALDH2 (P05091 17-517): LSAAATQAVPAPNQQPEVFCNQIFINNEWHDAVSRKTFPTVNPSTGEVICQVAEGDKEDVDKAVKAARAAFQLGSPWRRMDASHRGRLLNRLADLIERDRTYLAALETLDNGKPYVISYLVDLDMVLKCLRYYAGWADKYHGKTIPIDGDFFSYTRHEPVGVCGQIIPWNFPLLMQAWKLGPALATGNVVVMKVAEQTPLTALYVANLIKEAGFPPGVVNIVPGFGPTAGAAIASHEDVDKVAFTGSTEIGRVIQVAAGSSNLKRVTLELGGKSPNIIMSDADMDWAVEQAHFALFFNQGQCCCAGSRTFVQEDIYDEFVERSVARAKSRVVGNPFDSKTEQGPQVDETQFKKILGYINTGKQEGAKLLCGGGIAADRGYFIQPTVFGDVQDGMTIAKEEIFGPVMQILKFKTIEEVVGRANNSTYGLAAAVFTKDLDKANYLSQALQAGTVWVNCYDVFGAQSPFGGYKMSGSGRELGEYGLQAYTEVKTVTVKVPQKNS

## CCOCc1ccc(C)c(Nc2ncc(-c3ccc(N4CCNC4=O)cc3)o2)c1 [AB8939]
[1]
  IC50: 340 nM
[2]
  IC50: 87 nM
[3]
  IC50: 1 nM
[4]
  IC50: 3 nM
[5]
  IC50: 4 nM
[6]
  IC50: 1 nM
[7]
  IC50: 2 nM
[8]
  IC50: 1 nM
[9]
  IC50: 1 nM
[10]
  IC50: 14 nM
[11]
  IC50: 1 nM
[12]
  IC50: 4 nM
[13]
  IC50: 1 nM
[14]
  IC50: 5 nM
[15]
  IC50: 122 nM
[16]
  IC50: 14 nM
[17]
  IC50: 7 nM
[18]
  IC50: 14 nM
[19]
  IC50: 1 nM
[20]
  IC50: 46 nM
[21]
  IC50: 1 nM
[22]
  IC50: 2 nM
[23]
  IC50: 4 nM
[24]
  IC50: 1 nM
[25]
  IC50: 1 nM
[26]
  IC50: 49 nM
[27]
  IC50: 8 nM
[28]
  IC50: 1 nM
[29]
  IC50: 1 nM
